One series concerns the target CYP2C19 (Homo sapiens, UniProt P33261). Put plainly: In vitro inhibition of human cytochrome P450 CYP2C19 (fluorometric, 3-cyano-7-ethoxycoumarin substrate). The protocol: (§1) In Vitro Inhibition of Human Cytochrome P450 Enzymes
(§2) Solution A: NADPH-Regenerating System
To a glass tube on ice were added sequentially: Water (8 mL) in NADP+ (20 mg), glucose-6-phosphate (20 mg), magnesium chloride hexahydrate (13.3 mg) and glucose-6-phosphate dehydrogenase (60 units).
Solution A was transferred to a 96-well black plate (80 microliter per well), followed by various concentrations of a solution of paroxetine in 20% acetonitrile-water (20 microliter per well). The reaction was initiated by adding 100 microliter of solution B to each well of the 96-well plate. The plate was incubated for 30 minutes at 37° C. in the dark. The reaction was stopped by adding 75 microliter of stop buffer (4:1 acetonitrile-0.5 M Tris base) to each well, and the end point was measured in a fluorometer plate reader at λex=409 nm and λem=460 nm.

A further series deals with CYP2D6 (Homo sapiens, UniProt P10635). The experiment in a line: In vitro inhibition of human cytochrome P450 CYP2D6 (fluorometric, 3-[2-(N,N diethyl-N-methylamino)ethyl]-7-methoxy-4-methylcoumarin substrate). The settings on record: for IC50: 40 minutes at 37° C.; for times the amount of compound needed to inhibit CYP2D6 than non-isotopically enriched zamifenacin: ratio versus non-isotopically enriched zamifenacin (IC50 0.33 μM). The series is classed as in vitro ADME. The protocol:
as §1, §2
The plate was incubated for 40 minutes at 37° C. in the dark.

The mark [1] stands for this setting: read-out: IC50 for inhibition of CYP2D6.

SMILES strings stand for the structures. Where two headings read alike, the source gives them in different places.

Five compounds from patent publication US20090005309A1, “SUBSTITUTED PIPERIDINES” (AUSPEX PHARMACEUTICALS, INC., priority 2007, published 2009) can be followed below.

CYP2C19, sequence (P33261 whole entry): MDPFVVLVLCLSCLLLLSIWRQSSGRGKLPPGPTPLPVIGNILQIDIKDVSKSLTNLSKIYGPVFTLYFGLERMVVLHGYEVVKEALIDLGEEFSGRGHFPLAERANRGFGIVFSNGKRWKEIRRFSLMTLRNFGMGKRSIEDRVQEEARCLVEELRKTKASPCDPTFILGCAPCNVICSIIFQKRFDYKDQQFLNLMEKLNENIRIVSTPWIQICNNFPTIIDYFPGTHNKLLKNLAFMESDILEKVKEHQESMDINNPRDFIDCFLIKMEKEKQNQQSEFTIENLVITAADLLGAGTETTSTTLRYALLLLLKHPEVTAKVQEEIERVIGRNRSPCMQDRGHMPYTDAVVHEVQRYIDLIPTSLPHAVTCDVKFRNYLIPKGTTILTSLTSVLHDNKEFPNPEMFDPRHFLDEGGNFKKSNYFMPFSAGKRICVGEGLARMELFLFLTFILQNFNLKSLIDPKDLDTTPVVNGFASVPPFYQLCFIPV
CYP2D6, sequence (P10635 whole entry): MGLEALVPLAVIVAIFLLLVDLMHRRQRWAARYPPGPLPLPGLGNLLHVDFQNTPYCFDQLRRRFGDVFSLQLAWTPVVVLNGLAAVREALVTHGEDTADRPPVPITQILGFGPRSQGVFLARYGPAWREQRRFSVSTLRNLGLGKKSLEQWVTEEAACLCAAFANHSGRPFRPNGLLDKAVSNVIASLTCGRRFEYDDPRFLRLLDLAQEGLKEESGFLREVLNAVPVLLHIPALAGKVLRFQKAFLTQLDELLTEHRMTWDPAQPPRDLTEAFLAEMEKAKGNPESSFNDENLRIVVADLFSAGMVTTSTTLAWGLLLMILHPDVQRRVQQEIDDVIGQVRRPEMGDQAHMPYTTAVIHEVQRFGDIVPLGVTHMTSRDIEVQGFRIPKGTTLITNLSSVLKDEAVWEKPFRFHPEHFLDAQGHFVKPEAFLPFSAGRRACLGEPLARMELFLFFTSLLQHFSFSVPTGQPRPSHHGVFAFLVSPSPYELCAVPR

Take `[2H]C([2H])(c1ccc2c(c1)OCO2)C([2H])([2H])N1CCCC(OC(c2ccccc2)c2ccccc2)C1` (stereo not shown) [Example 2, d4-3-Benzhydryloxy-1-(2-benzo[1,3]dioxol-5-yl-ethyl)-piperidine]: at CYP2C19, the half-inhibitory concentration (IC50) came out at 4000 nM.

As to `c1ccc(C(OC2CCCN(CCc3ccc4c(c3)OCO4)C2)c2ccccc2)cc1` (stereo not shown) [zamifenacin, 3-benzhydryloxy-1-(2-benzo[1,3]dioxol-5-yl-ethyl)-piperidine, reference compound], the figures for the IC50 at CYP2C19 and at CYP2D6 (setting [1]) were 3600 nM and 330 nM, respectively.

Regarding `[2H]C1([2H])Oc2ccc(C([2H])([2H])C([2H])([2H])N3CCCC(OC(c4ccccc4)c4ccccc4)C3)cc2O1` (stereo not shown) [Example 4, d6-3-Benzhydryloxy-1-(2-benzo[1,3]dioxol-5-yl-ethyl)-piperidine], the figures for the IC50 against CYP2C19 and at CYP2D6 (setting [1]) were 5300 nM and 420 nM, respectively. Further, the “times the amount of compound needed to inhibit CYP2D6 than non-isotopically enriched zamifenacin” value on CYP2D6 stood at 1.3 times.

Consider `[2H]C1([2H])Oc2ccc(CCN3CCCC(OC(c4ccccc4)c4ccccc4)C3)cc2O1` (stereo not shown) [Example 3, d2-3-Benzhydryloxy-1-(2-benzo[1,3]dioxol-5-yl-ethyl)-piperidine], for which the IC50 stood at 5100 nM at CYP2C19 and 400 nM at CYP2D6 (setting [1]). For the same compound, the “times the amount of compound needed to inhibit CYP2D6 than non-isotopically enriched zamifenacin” value on CYP2D6 amounted to 1.2 times.

For `Cc1nc2c([nH]1)c(=O)n(C)c(=O)n2Cc1ccco1` [Furafylline, reference compound], the IC50 at CYP2D6 (positive control, read-out: IC50 for inhibition of CYP2D6 (positive control)) worked out at 14.5 nM.

By IC50 is commonly meant the point on the concentration scale where inhibition reaches its midpoint.
